Data taken from patent publication US20110046040A1, “Microorganism-inactivating agent” (CHISSO CORPORATION, priority 2009, published 2011).

Columns and labels:
Format in all cases: cell-based
Salmonella enterica = test: inactivation with further addition of the microorganism after predetermined periods; conditions: ε-poly-L-lysine 5 ppm
Protocol: (§1) Each test microbe was inoculated to nutrient broth and cultured with shaking at the optimum temperature of the test microbe until the late logarithmic phase. From the microbe culture, the microbe was collected, and the collected microbe was washed with 1.5 mL of physiological saline 2 to 3 times (centrifugation at 13000 rpm for 1 minute) and suspended in 1.5 mL of physiological saline. From the suspension, a 1 mL aliquot was recovered, and this was added to 9 mL of sterile water, followed by sufficient stirring of the resulting suspension (this was used as 10^−1 dilution). From the 10^−1 dilution, 10^−2 to 10^−8 dilutions were sequentially prepared. Each dilution was smeared on a film medium (Sanita-kun; for E. coli and coliform bacteria, for Staphylococcus aureus, for Salmonella, for aerobic bacteria or for fungi: Chisso Corporation) in an amount of 1 mL, followed by culturing at the optimum temperature of the test microbe for 24 to 72 hours and measurement of the number of cells on the film medium.
(§2) To a sterilized beaker, 500 mL of sterilized water was placed, and 0.20 mL of microbe culture of 10^6 to 10^10 cells/mL was inoculated thereto, to attain an initial cell number of 10^3 to 10^7 cells/mL. Unless otherwise specified, the pH was 6 to 8. After stirring the suspension gently for 5 minutes, PGα21Ca (Nippon Poly-Glu Co., Ltd.) and/or a microbiostatic agent or microbicide was/were added thereto such that a predetermined final concentration(s) was/were attained. After gentle stirring at room temperature for 10 to 15 minutes, the suspension was left to stand for a predetermined length of time. The supernatant was collected and diluted appropriately in an antimicrobial agent-inactivating medium (BHI medium or the like), and 1 mL each of the resulting diluent was smeared on a film medium. Culturing was carried out at the optimum temperature of each test microbe for 24 to 72 hours and the number of cells (cells/mL) on the film medium was measured.
(§3) (3) The inactivation effect of ε-poly-L-lysine, which is a microbicide related to the microorganism-inactivating agent of the present invention, upon its single application to water containing Escherichia coli, Salmonella or Staphylococcus, followed by further addition of the respective microorganisms after predetermined periods of time was studied. The addition of the microorganisms was carried out at 24, 48, 72 and 144 hours after sampling. ε-poly-L-lysine was added at a concentration of 5 ppm. […]

Staphylococcus aureus [1] = test: as above; conditions: ε-poly-L-lysine 5 ppm
Protocol: as §1, §2, §3

Escherichia coli = test: as above; conditions: ε-poly-L-lysine 5 ppm
Protocol: as §1, §2, §3

Listeria monocytogenes = test: inactivation of microorganisms in water, number of cells in supernatant
Protocol: as §1, §2

Klebsiella pneumoniae = test: as above
Protocol: as §1, §2

Bacillus subtilis = test: as above
Protocol: as §1, §2

Bacillus cereus = test: as above
Protocol: as §1, §2

Pseudomonas aeruginosa = test: as above
Protocol: as §1, §2

Staphylococcus aureus [2] = test: as above
Protocol: as §1, §2

[3] = further addition of microbe at 24 h (3.2 × 10^7)
[4] = further addition of microbe at 48 h (3.6 × 10^6)
[5] = further addition of microbe at 72 h (3.0 × 10^6)
[6] = further addition of microbe at 144 h (3.1 × 10^6)
[7] = further addition of microbe at 24 h (2.2 × 10^7)
[8] = further addition of microbe at 48 h (1.4 × 10^6)
[9] = further addition of microbe at 72 h (6.1 × 10^6)
[10] = further addition of microbe at 144 h (7.9 × 10^6)
[11] = further addition of microbe at 24 h (1.3 × 10^8)
[12] = further addition of microbe at 48 h (5.0 × 10^6)
[13] = further addition of microbe at 72 h (6.6 × 10^6)
[14] = further addition of microbe at 144 h (1.2 × 10^7)
[15] = ε-poly-L-lysine 10 ppm, 0 minute later 8.1 × 10^4
[16] = ε-poly-L-lysine 10 ppm, 0 minute later 3.3 × 10^5
[17] = ε-poly-L-lysine 10 ppm, 0 minute later 2.9 × 10^4
[18] = ε-poly-L-lysine 10 ppm, 0 minute later 7.5 × 10^4
[19] = ε-poly-L-lysine 10 ppm, 0 minute later 6.2 × 10^5
[20] = ε-poly-L-lysine 5 ppm, initial 1.2 × 10^7
[21] = ε-poly-L-lysine 10 ppm, 0 minute later 2.3 × 10^4
[22] = ε-poly-L-lysine 10 ppm, initial 1.2 × 10^7

## ε-poly-L-lysine
Salmonella enterica; [3]
  number of cells, elapsed time 26 hours: <10 cells/mL
  number of cells, elapsed time 28 hours: <10 cells/mL
  number of cells, elapsed time 48 hours: <10 cells/mL
Salmonella enterica; [4]
  number of cells, elapsed time 50 hours: <10 cells/mL
  number of cells, elapsed time 52 hours: <10 cells/mL
  number of cells, elapsed time 72 hours: <10 cells/mL
Salmonella enterica; [5]
  number of cells, elapsed time 74 hours: <10 cells/mL
  number of cells, elapsed time 76 hours: <10 cells/mL
  number of cells, elapsed time 96 hours: <10 cells/mL
  number of cells, elapsed time 144 hours: <10 cells/mL
Salmonella enterica; [6]
  number of cells, elapsed time 146 hours: <10 cells/mL
  number of cells, elapsed time 148 hours: <10 cells/mL
  number of cells, elapsed time 168 hours: <10 cells/mL
Salmonella enterica; initial 3.0 × 10^6
  number of cells, elapsed time 2 hours: <10 cells/mL
  number of cells, elapsed time 4 hours: <10 cells/mL
  number of cells, elapsed time 24 hours: <10 cells/mL
Staphylococcus aureus [1]; [7]
  number of cells, elapsed time 26 hours: 2.2 × 10^6 cells/mL
  number of cells, elapsed time 28 hours: 2.1 × 10^5 cells/mL
  number of cells, elapsed time 48 hours: <10 cells/mL
Staphylococcus aureus [1]; [8]
  number of cells, elapsed time 50 hours: 2.5 × 10^4 cells/mL
  number of cells, elapsed time 52 hours: 1.2 × 10^4 cells/mL
  number of cells, elapsed time 72 hours: <10 cells/mL
Staphylococcus aureus [1]; [9]
  number of cells, elapsed time 74 hours: 1.7 × 10^3 cells/mL
  number of cells, elapsed time 76 hours: 20 cells/mL
  number of cells, elapsed time 96 hours: <10 cells/mL
  number of cells, elapsed time 144 hours: <10 cells/mL
Staphylococcus aureus [1]; [10]
  number of cells, elapsed time 146 hours: 1.0 × 10^3 cells/mL
  number of cells, elapsed time 148 hours: 90 cells/mL
  number of cells, elapsed time 168 hours: <10 cells/mL
Staphylococcus aureus [1]; initial 2.0 × 10^6
  number of cells, elapsed time 2 hours: <10 cells/mL
  number of cells, elapsed time 4 hours: <10 cells/mL
  number of cells, elapsed time 24 hours: <10 cells/mL
Escherichia coli; [11]
  number of cells, elapsed time 26 hours: <10 cells/mL
  number of cells, elapsed time 28 hours: <10 cells/mL
  number of cells, elapsed time 48 hours: <10 cells/mL
Escherichia coli; [12]
  number of cells, elapsed time 50 hours: <10 cells/mL
  number of cells, elapsed time 52 hours: <10 cells/mL
  number of cells, elapsed time 72 hours: <10 cells/mL
Escherichia coli; [13]
  number of cells, elapsed time 74 hours: <10 cells/mL
  number of cells, elapsed time 76 hours: <10 cells/mL
  number of cells, elapsed time 96 hours: <10 cells/mL
  number of cells, elapsed time 144 hours: <10 cells/mL
Escherichia coli; [14]
  number of cells, elapsed time 146 hours: <10 cells/mL
  number of cells, elapsed time 148 hours: <10 cells/mL
  number of cells, elapsed time 168 hours: <10 cells/mL
Escherichia coli; initial 1.0 × 10^6
  number of cells, elapsed time 2 hours: <10 cells/mL
  number of cells, elapsed time 4 hours: <10 cells/mL
  number of cells, elapsed time 24 hours: <10 cells/mL
Listeria monocytogenes; 10 ppm, pH 8, initial 2.0 × 10^4
  number of cells 2 hours later: <10 cells/mL
Listeria monocytogenes; [15]
  number of cells 5 minutes later: 780 cells/mL
  number of cells 15 minutes later: 40 cells/mL
  number of cells 60 minutes later: 20 cells/mL
  number of cells 120 minutes later: <10 cells/mL
Klebsiella pneumoniae; 10 ppm, pH 8, initial 1.3 × 10^5
  number of cells 2 hours later: <10 cells/mL
Klebsiella pneumoniae; [16]
  number of cells 5 minutes later: 1.8 × 10^4 cells/mL
  number of cells 15 minutes later: 1.87 × 10^3 cells/mL
  number of cells 60 minutes later: 10 cells/mL
  number of cells 120 minutes later: <10 cells/mL
Bacillus subtilis; 10 ppm, pH 8, initial 6.0 × 10^4
  number of cells 2 hours later: <10 cells/mL
Bacillus subtilis; [17]
  number of cells 5 minutes later: 4 × 10^3 cells/mL
  number of cells 15 minutes later: 30 cells/mL
  number of cells 60 minutes later: <10 cells/mL
  number of cells 120 minutes later: <10 cells/mL
Bacillus cereus; 10 ppm, pH 8, initial 9.5 × 10^4
  number of cells 2 hours later: 290 cells/mL
Bacillus cereus; [18]
  number of cells 5 minutes later: 140 cells/mL
  number of cells 15 minutes later: 110 cells/mL
  number of cells 60 minutes later: 80 cells/mL
  number of cells 120 minutes later: <10 cells/mL
Pseudomonas aeruginosa; 10 ppm, pH 8, initial 2.0 × 10^5
  number of cells 2 hours later: <10 cells/mL
Pseudomonas aeruginosa; [19]
  number of cells 5 minutes later: 2.16 × 10^4 cells/mL
  number of cells 15 minutes later: 240 cells/mL
  number of cells 60 minutes later: 20 cells/mL
  number of cells 120 minutes later: <10 cells/mL
Staphylococcus aureus [2]; 10 ppm, pH 8, initial 4.3 × 10^4
  number of cells 2 hours later: <10 cells/mL
Staphylococcus aureus [2]; [20]
  number of cells 0.5 hour later: 4.0 × 10^4 cells/mL
  number of cells 1 hour later: 2.2 × 10^4 cells/mL
  number of cells 2 hours later: 4.2 × 10^3 cells/mL
Staphylococcus aureus [2]; [21]
  number of cells 5 minutes later: 8.1 × 10^3 cells/mL
  number of cells 15 minutes later: 2.55 × 10^3 cells/mL
  number of cells 60 minutes later: 2 × 10^3 cells/mL
  number of cells 120 minutes later: 440 cells/mL
Staphylococcus aureus [2]; [22]
  number of cells 0.5 hour later: 5.0 × 10^4 cells/mL
  number of cells 1 hour later: 7.0 × 10^3 cells/mL
  number of cells 2 hours later: 4.8 × 10^3 cells/mL
